Test results reported in patent publication US8513423B2 (Janssen Pharmaceutica, NV, priority 2010, dated 2013).
Residue numbers refer to the chain shown, from its start. Like-named read-outs stand apart in the source and are kept apart here.

Legend:
[1] = target: T1, purified wild type MGL (wt-MGLL 6H-11-313) (Homo sapiens, UniProt Q99685); assay: MGL enzyme activity assay (4MU-B cleavage), wild type MGL; format: biochemical; conditions: 10 μM 4MU-B, 5 nM enzyme, 37° C., read-out: MGL wild type inh IC50
T1 construct: purified wild type MGL (wt-MGLL 6H-11-313)
T1 sequence (Q99685 1-303): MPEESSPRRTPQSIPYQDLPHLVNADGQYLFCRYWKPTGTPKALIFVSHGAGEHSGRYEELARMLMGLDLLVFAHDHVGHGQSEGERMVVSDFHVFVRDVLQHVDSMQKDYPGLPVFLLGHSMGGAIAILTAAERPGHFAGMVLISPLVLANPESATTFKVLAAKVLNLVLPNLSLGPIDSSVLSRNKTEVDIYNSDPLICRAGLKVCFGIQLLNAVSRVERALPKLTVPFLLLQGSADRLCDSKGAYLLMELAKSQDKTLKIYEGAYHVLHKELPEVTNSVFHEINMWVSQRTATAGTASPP
Summary of the method: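 Enzyme (5 nM final) cleaved 4MU-B (10 μM final) in 20 mM PIPES pH 7.0 with 150 mM NaCl and 0.001% Tween 20. Compounds were tested at 17 to 0.0003 μM final. Fluorescence (ex 335/em 440 nm) was monitored at 37° C for 5 min, and IC50 was fitted from fractional activity versus inhibitor concentration.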

[2] = target: T2, MGL (Rattus norvegicus, UniProt Q8R431); assay: 2-AG accumulation assay in rat brain homogenate; format: biochemical; conditions: compound @1 μM, read-out: Rat Brain 2AG % VehCntrl (%) @1 μM
T2 construct: one g rat brain was homogenized; from tissue; host or cells: rat brain homogenate
T2 sequence (Q8R431 1-303): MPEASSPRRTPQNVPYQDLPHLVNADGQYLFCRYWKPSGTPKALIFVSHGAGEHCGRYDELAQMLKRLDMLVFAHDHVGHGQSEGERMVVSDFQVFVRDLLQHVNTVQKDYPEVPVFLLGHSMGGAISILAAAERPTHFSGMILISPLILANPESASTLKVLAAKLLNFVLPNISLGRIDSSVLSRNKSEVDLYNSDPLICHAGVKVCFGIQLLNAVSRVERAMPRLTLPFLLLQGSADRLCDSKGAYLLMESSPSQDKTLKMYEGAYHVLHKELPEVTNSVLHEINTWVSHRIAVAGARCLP
Summary of the method: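 Rat brain homogenate was incubated with compound for 15 min at 37° C., after which CaCl2 was added to a final concentration of 10 mM. Incubation then continued for another 15 min at 37° C. in 5 mL total volume. Reactions were stopped by adding 6 mL of 2:1 chloroform/methanol. 2-AG in the organic phase was quantified by HPLC/MS.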

[3] = target: T3, mutant MGL (Homo sapiens, UniProt Q99685, L169S/L176S); assay: MGL ThermoFluor assay - mutant; format: binding
T3 construct: purified mutant MGL (mut-MGLL 11-313 L179S L186S)
T3 sequence (Q99685 1-303 L169S/L176S): T1 sequence (Q99685 1-303) with L169S, L176S
Summary of the method: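 Thermal shift binding with 0.07 mg/ml L169S/L176S MGL, 100 μM 1,8-ANS, 200 mM NaCl, 0.001% Tween-20, 50 mM PIPES pH 7.0. Heated 40–90 °C at 1 °C/min, fluorescence (em 500 nm) tracked to give Tm; Kd fitted from 11-point concentration–Tm response, qKd when stocks quantified by qNMR.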

[4] = 0.07 mg/ml mutant MGL, pH=7.0, read-out: MGL mutant ThermoFluor Kd
[5] = compound concentration measured by qNMR, read-out: MGL mutant ThermoFluor qKd (using qNMR conc.)

| Structure (SMILES) | IC50 [1] [nM] | 2-AG accumulation, percent of vehicle control at 1 µM [2] [%] | Kd [3, 4] [nM] | Kd [3, 5] [nM] |
| --- | --- | --- | --- | --- |
| O=C(c1ccc[nH]1)N1CCC(C2CN(C(=O)c3sc4cc(C(F)(F)F)ccc4c3Cl)C2)CC1 [Cpd 41, 4-(1-{[3-Chloro-6-(trifluoromethyl)-1-benzothiophen-2-yl]carbonyl}azetidin-3-yl)-1-(1H-pyrrol-2-ylcarbonyl)piperidine] | < 5 | 272 | 4.1 | 3.1 |
| O=C(c1ccc2c(ccn2-c2ccc(F)cc2)c1)N1CCC(C2CN(C(=O)c3nccs3)C2)CC1 [Cpd 72, 1-(4-Fluorophenyl)-5-({4-[1-(1,3-thiazol-2-ylcarbonyl)azetidin-3-yl]piperidin-1-yl}carbonyl)-1H-indole] | 17 | 657 |  | 2.7 |
| O=C(c1ccc2c(ccn2-c2ccc(F)cc2)c1)N1CC(C2CCN(C(=O)c3ccc[nH]3)CC2)C1 [Cpd 42, 1-(4-Fluorophenyl)-5-({3-[1-(1H-pyrrol-2-ylcarbonyl)piperidin-4-yl]azetidin-1-yl}carbonyl)-1H-indole] | < 5 | 498 |  | 24.5 |
| O=C(c1cscn1)N1CCC(C2CN(C(=O)c3sc4cc(C(F)(F)F)ccc4c3Cl)C2)CC1 [Cpd 35, 4-(1-{[3-Chloro-6-(trifluoromethyl)-1-benzothiophen-2-yl]carbonyl}azetidin-3-yl)-1-(1,3-thiazol-4-ylcarbonyl)piperidine] | < 5 | 724 | 2.5 | 5.7 |
| O=C(c1ccc(Cc2ccc(C(F)(F)F)cc2)cc1)N1CC(C2CCN(C(=O)c3cscn3)CC2)C1 [Cpd 33, 1-(1,3-Thiazol-4-ylcarbonyl)-4-[1-({4-[4-(trifluoromethyl)benzyl]phenyl}carbonyl)azetidin-3-yl]piperidine] | < 5 | 696 | 62.6 |  |
| O=C(c1ccc(-c2cccc(C(F)(F)F)c2)cc1)N1CCC(C2CN(C(=O)c3cscn3)C2)CC1 [Cpd 49, 4-[1-(1,3-Thiazol-4-ylcarbonyl)azetidin-3-yl]-1-{[3′-(trifluoromethyl)biphenyl-4-yl]carbonyl}piperidine] | 6 | 908 |  | 1 |
| O=C(c1ccc(Cc2ccc(C(F)(F)F)cc2)cc1)N1CCC(C2CN(C(=O)c3ccc[nH]3)C2)CC1 [Cpd 65, 4-[1-(1H-Pyrrol-2-ylcarbonyl)azetidin-3-yl]-1-({4-[4-(trifluoromethyl)benzyl]phenyl}carbonyl)piperidine] | < 5 | 241 |  | 40.4 |
| O=C(c1ccc(Cc2ccc(C(F)(F)F)cc2)cc1)N1CC(C2CCN(C(=O)c3ccc[nH]3)CC2)C1 [Cpd 39, 1-(1H-Pyrrol-2-ylcarbonyl)-4-[1-({4-[4-(trifluoromethyl)benzyl]phenyl}carbonyl)azetidin-3-yl]piperidine] | < 5 | 371 |  | 48.9 |
| O=C(c1ccc2nc(-c3ccccc3)oc2c1)N1CC(C2CCN(C(=O)c3ccc[nH]3)CC2)C1 [Cpd 40, 2-Phenyl-6-({3-[1-(1H-pyrrol-2-ylcarbonyl)piperidin-4-yl]azetidin-1-yl}carbonyl)-1,3-benzoxazole] | 9 | 361 |  | 94.6 |
| O=C(c1ccc[nH]1)N1CC(C2CCN(C(=O)c3sc4cc(C(F)(F)F)ccc4c3Cl)CC2)C1 [Cpd 71, 1-{[3-Chloro-6-(trifluoromethyl)-1-benzothiophen-2-yl]carbonyl}-4-[1-(1H-pyrrol-2-ylcarbonyl)azetidin-3-yl]piperidine] | 12 | 552 |  | 1.2 |
| O=C(c1cscn1)N1CC(C2CCN(C(=O)c3sc4cc(C(F)(F)F)ccc4c3Cl)CC2)C1 [Cpd 70, 1-{[3-Chloro-6-(trifluoromethyl)-1-benzothiophen-2-yl]carbonyl}-4-[1-(1,3-thiazol-4-ylcarbonyl)azetidin-3-yl]piperidine] | 8 | 561 |  | 0.6 |
| O=C(c1nccs1)N1CC(C2CCN(C(=O)c3sc4cc(C(F)(F)F)ccc4c3Cl)CC2)C1 [Cpd 69, 1-{[3-Chloro-6-(trifluoromethyl)-1-benzothiophen-2-yl]carbonyl}-4-[1-(1,3-thiazol-2-ylcarbonyl)azetidin-3-yl]piperidine] | < 5 | 539 |  | 1.2 |
| O=C(c1ccc2c(ccn2-c2ccc(C(F)(F)F)cc2)c1)N1CC(C2CCN(C(=O)c3cscn3)CC2)C1 [Cpd 37, 5-({3-[1(1,3 -Thiazol-4-ylcarbonyl)piperidin-4-yl]azetidin-1-yl}carbonyl)-1-[4-(trifluoromethyl)phenyl]-1H-indole] | < 5 | 163 | 16 |  |
| O=C(c1ccc(Cc2cccc(C(F)(F)F)c2)cc1)N1CCC(C2CN(C(=O)c3nccs3)C2)CC1 [Cpd 57, 4-[1-(1,3-Thiazol-2-ylcarbonyl)azetidin-3-yl]-1-({4-[3-(trifluoromethyl)benzyl]phenyl}carbonyl)piperidine] | 17 | 869 |  | 5.9 |

Further lines, results first:

| IC50 [1] [nM] | 2-AG accumulation, percent of vehicle control at 1 µM [2] [%] | Kd [3, 4] [nM] | Kd [3, 5] [nM] | Structure (SMILES) |
| --- | --- | --- | --- | --- |
| < 5 | 443 | 2.5 |  | O=C(c1ccc2c(ccn2-c2ccc(F)cc2)c1)N1CC(C2CCN(C(=O)c3nccs3)CC2)C1 [Cpd 30, 1-(4-Fluorophenyl)-5-({3-[1-(1,3-thiazol-2-ylcarbonyl)piperidin-4-yl]azetidin-1-yl}carbonyl)-1H-indole] |
| < 5 | 714 |  | 5 | O=C(c1ccc2c(ccn2-c2ccc(C(F)(F)F)cc2)c1)N1CCC(C2CN(C(=O)c3ccc[nH]3)C2)CC1 [Cpd 77, 5-({4-[1-(1H-Pyrrol-2-ylcarbonyl)azetidin-3-yl]piperidin-1-yl}carbonyl)-1-[4-(trifluoromethyl)phenyl]-1H-indole] |
| 62.1 | 453 |  | 14.5 | O=C(c1ccc2nc(-c3ccccc3)oc2c1)N1CCC(C2CN(C(=O)c3ccc[nH]3)C2)CC1 [Cpd 68, 2-Phenyl-6-({4-[1-(1H-pyrrol-2-ylcarbonyl)azetidin-3-yl]piperidin-1-yl}carbonyl)-1,3-benzoxazole] |
| 10 | 134 | 22 |  | O=C(c1ccc(-c2ccc(C(F)(F)F)s2)cc1)N1CC(C2CCN(C(=O)c3cscn3)CC2)C1 [Cpd 12, 1-(1,3-Thiazol-4-ylcarbonyl)-4-[1-({4-[5-(trifluoromethyl)thiophen-2-yl]phenyl}carbonyl)azetidin-3-yl]piperidine] |
| < 5 | 860 |  | 4.9 | O=C(c1ccc2c(ccn2-c2ccc(F)c(F)c2)c1)N1CCC(C2CN(C(=O)c3ccc[nH]3)C2)CC1 [Cpd 80, 1-(3,4-Difluorophenyl)-5-({4-[1-(1H-pyrrol-2-ylcarbonyl)azetidin-3-yl]piperidin-1-yl}carbonyl)-1H-indole] |
| 54.4 | 517 | 198 |  | O=C(c1ccc2nc(-c3ccccc3)oc2c1)N1CC(C2CCN(C(=O)c3cscn3)CC2)C1 [Cpd 34, 2-Phenyl-6-({3-[1-(1,3-thiazol-4-ylcarbonyl)piperidin-4-yl]azetidin-l-yl}carbonyl)-1,3-benzoxazole] |
